Where two headings read alike, the source gives them in different places.
Key:
Type in all cases: in vivo
[1] = tested on: ducksalad (Heteranthera limosa); test: Test B flooded paddy test; details: Heteranthera limosa, 250 g ai/ha, Flood; 0 to 100 scale where 0 is no effect and 100 is complete control; read-out: Ducksalad plant response rating
Method in brief: (§1)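 Compound goes directly into floodwater once pots are flooded 3 cm above soil, targeting plants at two leaves; the water depth is then held for the test duration. Plants sit 13–15 d in a greenhouse and are rated visually, 100 denoting complete control.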

[2] = tested on: barnyardgrass (Echinochloa crus-galli); test: Test B flooded paddy test; details: Echinochloa crus-galli, 250 g ai/ha, Flood; 0 to 100 scale where 0 is no effect and 100 is complete control; read-out: Barnyardgrass plant response rating
Method in brief: as §1

[3] = tested on: sedge, umbrella (small-flower umbrella sedge, Cyperus difformis); test: Test B flooded paddy test; details: Cyperus difformis, 250 g ai/ha, Flood; 0 to 100 scale where 0 is no effect and 100 is complete control; read-out: Sedge, Umbrella plant response rating
Method in brief: as §1

rice (Oryra sativa) = test: Test B flooded paddy test; details: Oryza sativa, 250 g ai/ha, Flood; 0 to 100 scale where 0 is no effect and 100 is complete control; read-out: Rice plant response rating
Method in brief: as §1

[4] = tested on: barnyardgrass (Echinochloa crus-galli); test: Test A postemergence; details: Echinochloa crus-galli, post-emergence, 240 h, postemergence; for pest or weed control at 125 g/ha: 125 g ai/ha; for pest or weed control at 500 g/ha: 500 g ai/ha, 0 to 100 scale, 0 is no effect, 100 is complete control
Method in brief: (§2)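 Preemergence soil spray on seeded pots or post-emergence spray on 1–2 leaf plants, in loam–sand blend. Greenhouse ~10 d. Visual rating 0–100 against untreated plants.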

[5] = tested on: ryegrass, Italian (Italian ryegrass, Lolium multiflorum); test: Test A postemergence; details: Lolium multiflorum, post-emergence, 240 h, postemergence; for pest or weed control at 125 g/ha: 125 g ai/ha; for pest or weed control at 500 g/ha: 500 g ai/ha, 0 to 100 scale, 0 is no effect, 100 is complete control
Method in brief: as §2

[6] = tested on: blackgrass (Alopecurus myosuroides); test: Test A postemergence; details: Alopecurus myosuroides, post-emergence, 240 h, postemergence; for pest or weed control at 125 g/ha: 125 g ai/ha; for pest or weed control at 500 g/ha: 500 g ai/ha, 0 to 100 scale, 0 is no effect, 100 is complete control
Method in brief: as §2

[7] = tested on: giant foxtail (Setaria faberii); test: Test A postemergence; details: Setaria faberi, post-emergence, 240 h, postemergence; for pest or weed control at 125 g/ha: 125 g ai/ha; for pest or weed control at 500 g/ha: 500 g ai/ha, 0 to 100 scale, 0 is no effect, 100 is complete control
Method in brief: as §2

[8] = tested on: ragweed (common ragweed, Ambrosia elatior); test: Test A postemergence; details: Ambrosia artemisiifolia, post-emergence, 240 h, postemergence; for pest or weed control at 125 g/ha: 125 g ai/ha; for pest or weed control at 500 g/ha: 500 g ai/ha, 0 to 100 scale, 0 is no effect, 100 is complete control
Method in brief: as §2

Kochia (Kochia scoparia) = test: Test A postemergence; details: Bassia scoparia, post-emergence, 240 h, postemergence; for pest or weed control at 125 g/ha: 125 g ai/ha; for pest or weed control at 500 g/ha: 500 g ai/ha, 0 to 100 scale, 0 is no effect, 100 is complete control
Method in brief: as §2

[9] = tested on: wheat (Triticum aestivum); test: Test A postemergence; details: Triticum aestivum, post-emergence, 240 h, postemergence; for plant injury at 125 g/ha: 125 g ai/ha; for plant injury at 500 g/ha: 500 g ai/ha, 0 to 100 scale, 0 is no effect, 100 is complete control
Method in brief: as §2

[10] = tested on: Galium (catchweed bedstraw, Galium aparine); test: Test A postemergence; details: Galium, post-emergence, 240 h, postemergence; for pest or weed control at 125 g/ha: 125 g ai/ha; for pest or weed control at 500 g/ha: 500 g ai/ha, 0 to 100 scale, 0 is no effect, 100 is complete control
Method in brief: as §2

[11] = tested on: pigweed (Amaranthus retroflexus); test: Test A postemergence; details: Amaranthus retroflexus, post-emergence, 240 h, postemergence; for pest or weed control at 125 g/ha: 125 g ai/ha; for pest or weed control at 500 g/ha: 500 g ai/ha, 0 to 100 scale, 0 is no effect, 100 is complete control
Method in brief: as §2

corn (Zea mays) = test: Test A postemergence; details: Zea mays, post-emergence, 240 h, postemergence; for plant injury at 125 g/ha: 125 g ai/ha; for plant injury at 500 g/ha: 500 g ai/ha, 0 to 100 scale, 0 is no effect, 100 is complete control
Method in brief: as §2

[12] = tested on: pigweed (Amaranthus retroflexus); test: Test A preemergence; details: Amaranthus retroflexus, pre-emergence, 240 h, preemergence, read-out: Pigweed plant response rating; for pest or weed control at 125 g/ha: 125 g ai/ha; for pest or weed control at 500 g/ha: 500 g ai/ha
[13] = read-out: Barnyardgrass plant response rating
[14] = read-out: Ryegrass, Italian plant response rating
[15] = read-out: Blackgrass plant response rating
[16] = read-out: Foxtail, Giant plant response rating
[17] = read-out: Ragweed plant response rating
[18] = read-out: Kochia plant response rating
[19] = read-out: Wheat plant response rating
[20] = read-out: Galium plant response rating
[21] = read-out: Pigweed plant response rating
[22] = read-out: Corn plant response rating

Compound | pest or weed control at 250 g/ha [1] | pest or weed control at 250 g/ha [2] | pest or weed control at 250 g/ha [3] | pest or weed control at 250 g/ha (rice (Oryra sativa)) | pest or weed control at 500 g/ha [4, 13] | pest or weed control at 500 g/ha [5, 14] | pest or weed control at 500 g/ha [6, 15] | pest or weed control at 500 g/ha [7, 16] | pest or weed control at 500 g/ha [8, 17] | pest or weed control at 500 g/ha (Kochia (Kochia scoparia); [18]) | plant injury at 500 g/ha [9, 19] | pest or weed control at 500 g/ha [10, 20] | pest or weed control at 500 g/ha [11, 21] | plant injury at 500 g/ha (corn (Zea mays); [22]) | other results
CN1CC(c2ccccc2OC(F)(F)C(F)F)C(C(=O)Nc2cccc(F)c2F)C1=O (stereo not shown) [Compound 1056] | 0% | 0% | 0% | 20% | 50% | 0% | 0% | 20% | 0% | 0% | 0% | 0% | 0% | 0% | pest or weed control at 125 g/ha ([4]; visual injury on 0 to 100 scale (0 no effect, 100 complete control), approx. 10 d, read-out: Barnyardgrass plant response rating): 20%; pest or weed control at 125 g/ha ([5]; visual injury on 0 to 100 scale (0 no effect, 100 complete control), approx. 10 d, read-out: Ryegrass, Italian plant response rating): 0%; pest or weed control at 125 g/ha ([6]; visual injury on 0 to 100 scale (0 no effect, 100 complete control), approx. 10 d, read-out: Blackgrass plant response rating): 0%; pest or weed control at 125 g/ha ([7]; visual injury on 0 to 100 scale (0 no effect, 100 complete control), approx. 10 d, read-out: Foxtail, Giant plant response rating): 0%; pest or weed control at 125 g/ha ([8]; visual injury on 0 to 100 scale (0 no effect, 100 complete control), approx. 10 d, read-out: Ragweed plant response rating): 0%; pest or weed control at 125 g/ha (Kochia (Kochia scoparia); visual injury on 0 to 100 scale (0 no effect, 100 complete control), approx. 10 d, read-out: Kochia plant response rating): 0%; plant injury at 125 g/ha ([9]; visual injury on 0 to 100 scale (0 no effect, 100 complete control), approx. 10 d, read-out: Wheat plant response rating): 0%; pest or weed control at 125 g/ha ([10]; visual injury on 0 to 100 scale (0 no effect, 100 complete control), approx. 10 d, read-out: Galium plant response rating): 0%; pest or weed control at 125 g/ha ([11]; visual injury on 0 to 100 scale (0 no effect, 100 complete control), approx. 10 d, read-out: Pigweed plant response rating): 0%; plant injury at 125 g/ha (corn (Zea mays); visual injury on 0 to 100 scale (0 no effect, 100 complete control), approx. 10 d, read-out: Corn plant response rating): 0%; pest or weed control at 125 g/ha ([12]; 0 to 100 scale where 0 is no effect and 100 is complete control, approx. 10 d): 0%; pest or weed control at 500 g/ha ([12]; visual injury rating about 10 d after treatment, 0 to 100 scale (0 no effect, 100 complete control)): 0%
Cc1cc([C@H]2CN(C)C(=O)[C@@H]2C(=O)Nc2ccccc2F)on1 [Compound 1195] | 0% | 20% | 0% | 20% | 20% | 0% | 0% | 20% | 0% | 0% | 0% | 0% | 0% | 0% | pest or weed control at 125 g/ha ([4]; visual injury vs untreated controls after approx. 10 d, 0 = no effect, 100 = complete control, read-out: Barnyardgrass plant response rating (0 to 100 scale)): 0%; pest or weed control at 125 g/ha ([5]; visual injury vs untreated controls after approx. 10 d, 0 = no effect, 100 = complete control, read-out: Ryegrass, Italian plant response rating (0 to 100 scale)): 0%; pest or weed control at 125 g/ha ([6]; visual injury vs untreated controls after approx. 10 d, 0 = no effect, 100 = complete control, read-out: Blackgrass plant response rating (0 to 100 scale)): 0%; pest or weed control at 125 g/ha ([7]; visual injury vs untreated controls after approx. 10 d, 0 = no effect, 100 = complete control, read-out: Foxtail, Giant plant response rating (0 to 100 scale)): 0%; pest or weed control at 125 g/ha ([8]; visual injury vs untreated controls after approx. 10 d, 0 = no effect, 100 = complete control, read-out: Ragweed plant response rating (0 to 100 scale)): 0%; pest or weed control at 125 g/ha (Kochia (Kochia scoparia); visual injury vs untreated controls after approx. 10 d, 0 = no effect, 100 = complete control, read-out: Kochia plant response rating (0 to 100 scale)): 0%; plant injury at 125 g/ha ([9]; visual injury vs untreated controls after approx. 10 d, 0 = no effect, 100 = complete control, read-out: Wheat plant response rating (0 to 100 scale)): 0%; pest or weed control at 125 g/ha ([10]; visual injury vs untreated controls after approx. 10 d, 0 = no effect, 100 = complete control, read-out: Galium plant response rating (0 to 100 scale)): 0%; pest or weed control at 125 g/ha ([11]; visual injury vs untreated controls after approx. 10 d, 0 = no effect, 100 = complete control, read-out: Pigweed plant response rating (0 to 100 scale)): 0%; plant injury at 125 g/ha (corn (Zea mays); visual injury vs untreated controls after approx. 10 d, 0 = no effect, 100 = complete control, read-out: Corn plant response rating (0 to 100 scale)): 0%; pest or weed control at 125 g/ha ([12]; visual injury rating, 0 to 100 scale where 0 is no effect and 100 is complete control, approximately 10 d): 0%; pest or weed control at 500 g/ha ([12]; 0 to 100 scale where 0 is no effect and 100 is complete control): 0%
